Data on 28 compounds can be found in patent US8217029B2, “Oxazolidinone antibiotics” (Actelion Pharmaceuticals Ltd, priority 2007, dated 2012).

The structures appear in SMILES notation. ≈ marks a conversion by molar mass, not a printed value.

What is called MIC is the smallest concentration in the dilution series that meets the test's criterion for growth inhibition.

The assay relates to S aureus A798. As to the kind of experiment: Minimal inhibitory concentration (MIC), microdilution method in cation-adjusted Mueller-Hinton Broth following NCCLS guidelines. It counts as cell-based. The conditions noted are these: pH of test medium 7.2-7.3. Put shortly:
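Broth microdilution per NCCLS M7-A4 in cation-adjusted Mueller-Hinton broth at pH 7.2-7.3; MIC reported in mg/l.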
In general terms: In broth dilution the organism is exposed to a series of concentrations in liquid medium.
Take `COc1ccc2ncc(F)c(N3CC(NC[C@@H]4CN(c5ccc6c(c5)NC(=O)CS6)C(=O)O4)C3)c2n1` [Example 48, 6-((R)-5-{[1-(3-Fluoro-6-methoxy-[1,5]naphthyridin-4-yl)-azetidin-3-ylamino]-methyl}-2-oxo-oxazolidin-3-yl)-4H-benzo[1,4]thiazin-3-one]: the MIC was at most 0.031 µg/mL.

As for `COc1ccc2nccc(N3CC(CNC[C@H]4CN(c5ccc6c(c5)OCCO6)C(=O)O4)C3)c2n1` [Example 1, (S)-3-(2,3-Dihydro-benzo[1,4]dioxin-6-yl)-5-({[1-(6-methoxy-[1,5]naphthyridin-4-yl)-azetidin-3-ylmethyl]-amino}-methyl)-oxazolidin-2-one], 0.25 µg/mL (≈ 0.524 µM) was the least that counted as inhibitory (MIC).

For `COc1ccc2nccc(N3CC[C@@H](NC[C@@H]4CN(c5ccc6c(c5)NC(=O)CS6)C(=O)O4)C3)c2n1` [Example 71, 6-((R)-5-{[(R)-1-(6-Methoxy-[1,5]naphthyridin-4-yl)-pyrrolidin-3-ylamino]-methyl}-2-oxo-oxazolidin-3-yl)-4H-benzo[1,4]thiazin-3-one], the MIC is at most 0.031 µg/mL.

The compound `COc1ccc2ncc(F)c(N3CC(NC[C@@H]4CN(c5ccc6c(c5)OCCO6)C(=O)O4)C3)c2n1` [Example 47, (R)-3-(2,3-Dihydro-benzo[1,4]dioxin-6-yl)-5-{[1-(3-fluoro-6-methoxy-[1,5]naphthyridin-4-yl)-azetidin-3-ylamino]-methyl}-oxazolidin-2-one] showed an MIC of at most 0.031 µg/mL.

`COc1ccc2ncc(F)c(N3CC[C@H](NC[C@@H]4CN(c5ccc(OC(F)F)cc5)C(=O)O4)C3)c2n1` [Example 171, (R)-3-(4-Difluoromethoxy-phenyl)-5-{[(S)-1-(3-fluoro-6-methoxy-[1,5]naphthyridin-4-yl)-pyrrolidin-3-ylamino]-methyl}-oxazolidin-2-one] gave an MIC of 0.063 µg/mL (≈ 0.125 µM).

Compound `COc1ccc2ncc(F)c(N3CC(NC[C@@H]4CN(c5cc6c(cc5F)SCC(=O)N6)C(=O)O4)C3)c2n1` [Example 155, 7-Fluoro-6-((R)-5-{[1-(3-fluoro-6-methoxy-[1,5]naphthyridin-4-yl)-azetidin-3-ylamino]-methyl}-2-oxo-oxazolidin-3-yl)-4H-benzo[1,4]thiazin-3-one] displayed an MIC of at most 0.031 µg/mL.

In the case of `COc1ccc2ncnc(N3CC(NC[C@@H]4CN(c5ccc6c(c5)NC(=O)CO6)C(=O)O4)C3)c2c1` [Example 54, 6-((R)-5-{[1-(6-Methoxy-quinazolin-4-yl)-azetidin-3-ylamino]-methyl}-2-oxo-oxazolidin-3-yl)-4H-benzo[1,4]oxazin-3-one], the MIC was at most 0.031 µg/mL.

Turning to `COc1ccc2nccc(N3CCN(C[C@@H]4CN(c5ccc6c(c5)NC(=O)CS6)C(=O)O4)CC3=O)c2n1` [Example 101, 6-{(R)-5-[4-(6-Methoxy-[1,5]naphthyridin-4-yl)-3-oxo-piperazin-1-ylmethyl]-2-oxo-oxazolidin-3-yl}-4H-benzo[1,4]thiazin-3-one], 0.5 µg/mL (≈ 0.96 µM) was the least that counted as inhibitory (MIC).

`COc1ccc2nccc(N3CC(N(C)C[C@@H]4CN(c5cc6c(nn5)OCCO6)C(=O)O4)C3)c2n1` [Example 153, (R)-3-(6,7-Dihydro-[1,4]dioxino[2,3-c]pyridazin-3-yl)-5-({[1-(6-methoxy-[1,5]naphthyridin-4-yl)-azetidin-3-yl]-methyl-amino}-methyl)-oxazolidin-2-one] returned an MIC of 4 µg/mL (≈ 8.34 µM).

Turning to `COc1ccc2nccc(N3CCC(NC[C@@H]4CN(c5ccc(C)c(F)c5)C(=O)O4)CC3)c2n1` [Example 121, (R)-3-(3-Fluoro-4-methyl-phenyl)-5-{[1-(6-methoxy-[1,5]naphthyridin-4-yl)-piperidin-4-ylamino]-methyl}-oxazolidin-2-one], the MIC is at most 0.031 µg/mL.

In turn, `COc1ccc2nccc(N3CC(CNCCC4CN(c5ccc(C)c(F)c5)C(=O)O4)C3)c2n1` (racemic) [Example 149, (RS)-3-(3-Fluoro-4-methyl-phenyl)-5-(2-{[1-(6-methoxy-[1,5]naphthyridin-4-yl)-azetidin-3-ylmethyl]-amino}-ethyl)-oxazolidin-2-one] gave an MIC of 0.063 µg/mL (≈ 0.135 µM).

Compound `COc1ccc2ncc(F)c(N3CCCN(C[C@@H]4CN(c5ccc6c(c5)NC(=O)CO6)C(=O)O4)CC3)c2n1` [Example 103, 6-{(R)-5-[4-(3-Fluoro-6-methoxy-[1,5]naphthyridin-4-yl)-[1,4]diazepan-1-ylmethyl]-2-oxo-oxazolidin-3-yl}-4H-benzo[1,4]oxazin-3-one] returned an MIC of at most 0.031 µg/mL.

The compound `COc1ccc2nccc(N3CC(N(C)C[C@@H]4CN(c5ccc6c(n5)NC(=O)CO6)C(=O)O4)C3)c2n1` [Example 150, 6-[(R)-5-({[1-(6-Methoxy-[1,5]naphthyridin-4-yl)-azetidin-3-yl]-methyl-amino}-methyl)-2-oxo-oxazolidin-3-yl]-4H-pyrido[3,2-b][1,4]oxazin-3-one] gave an MIC of at most 0.031 µg/mL.

As to `COc1ccc(N2C[C@@H](CNC3CCN(c4ccnc5ccc(OC)nc45)CC3)OC2=O)cc1` [Example 183, (R)-5-{[1-(6-Methoxy-[1,5]naphthyridin-4-yl)-piperidin-4-ylamino]-methyl}-3-(4-methoxy-phenyl)-oxazolidin-2-one], the MIC was found to be 0.25 µg/mL (≈ 0.539 µM).

For the compound `COc1ccc2nccc(N3CCN(CC4CN(c5ccc6c(n5)NC(=O)CO6)C(=O)O4)CC3)c2n1` (racemic) [Example 113, (RS)-6-{5-[4-(6-Methoxy-[1,5]naphthyridin-4-yl)-piperazin-1-ylmethyl]-2-oxo-oxazolidin-3-yl}-4H-pyrido[3,2-b][1,4]oxazin-3-one], the MIC was at most 0.031 µg/mL.

As to `COc1ccc2nccc(N3C[C@@H](CNC[C@@H]4CN(c5ccc6c(c5)NC(=O)CS6)C(=O)O4)[C@@H](O)C3)c2n1` (mixture of isomers) [Example 83, 6-[(R)-5-({[(3RS)-(4RS)-4-Hydroxy-1-(6-methoxy-[1,5]naphthyridin-4-yl)-pyrrolidin-3-ylmethyl]-amino}-methyl)-2-oxo-oxazolidin-3-yl]-4H-benzo[1,4]thiazin-3-one], the MIC turned out to be 0.25 µg/mL.

With `COc1ccc2nccc(N3CCN(CC4CN(c5ccc(C)cn5)C(=O)O4)CC3)c2n1` (racemic) [Example 43, (RS)-5-[4-(6-Methoxy-[1,5]naphthyridin-4-yl)-piperazin-1-ylmethyl]-3-(5-methyl-pyridin-2-yl)-oxazolidin-2-one], inhibition of growth (MIC) required 1 µg/mL (≈ 2.3 µM).

As to `COc1ccc2nccc(N3CCCN(C[C@@H]4CN(c5ccc6c(c5)OCCO6)C(=O)O4)CC3)c2n1` [Example 107, (R)-3-(2,3-Dihydro-benzo[1,4]dioxin-6-yl)-5-[4-(6-methoxy-[1,5]naphthyridin-4-yl)-[1,4]diazepan-1-ylmethyl]-oxazolidin-2-one], the minimum inhibitory concentration (MIC) was at most 0.031 µg/mL.

Take `COc1ccc2nccc(N3CCC(CNC[C@@H]4CN(c5ccc6c(c5)NC(=O)CS6)C(=O)O4)C3)c2n1` (mixture of isomers) [Example 80, 6-[(R)-5-({[(RS)-1-(6-Methoxy-[1,5]naphthyridin-4-yl)-pyrrolidin-3-ylmethyl]-amino}-methyl)-2-oxo-oxazolidin-3-yl]-4H-benzo[1,4]thiazin-3-one]: the MIC was at most 0.031 µg/mL.

`COc1ccc2nccc(N3CCN(C[C@@H]4CN(c5ccc6c(c5)OCCO6)C(=O)O4)CC3)c2n1` [Example 9, (R)-3-(2,3-Dihydro-benzo[1,4]dioxin-6-yl)-5-[4-(6-methoxy-[1,5]naphthyridin-4-yl)-piperazin-1-ylmethyl]-oxazolidin-2-one] came in with an MIC of at most 0.031 µg/mL.

Turning to `COc1ccc2nccc(N3CCN(C[C@@H]4CN(c5ccc(OC)c(OC)c5)C(=O)O4)CC3)c2n1` [Example 14, (R)-3-(3,4-Dimethoxy-phenyl)-5-[4-(6-methoxy-[1,5]naphthyridin-4-yl)-piperazin-1-ylmethyl]-oxazolidin-2-one], it took 2 µg/mL (≈ 4.17 µM) to inhibit growth (MIC).

`COc1ccc2nccc(N3CCCN(C[C@@H]4CN(c5ccc(C)c(F)c5)C(=O)O4)CC3)c2n1` [Example 108, (R)-3-(3-Fluoro-4-methyl-phenyl)-5-[4-(6-methoxy-[1,5]naphthyridin-4-yl)-[1,4]diazepan-1-ylmethyl]-oxazolidin-2-one]: the lowest concentration to inhibit growth (MIC) was 0.25 µg/mL (≈ 0.537 µM).

`COc1ccc2nccc(N3CCN(C[C@@H]4CN(c5ccc(N6CCCC6)cc5)C(=O)O4)CC3)c2n1` [Example 23, (R)-5-[4-(6-Methoxy-[1,5]naphthyridin-4-yl)-piperazin-1-ylmethyl]-3-(4-pyrrolidin-1-yl-phenyl)-oxazolidin-2-one]: the MIC stood at 2 µg/mL (≈ 4.09 µM).

With `COc1ccc2nccc(C3(O)CCN(C[C@@H]4CN(c5ccc6c(c5)NC(=O)CS6)C(=O)O4)CC3)c2c1` [Example 125, 6-{(R)-5-[4-Hydroxy-4-(6-methoxy-quinolin-4-yl)-piperidin-1-ylmethyl]-2-oxo-oxazolidin-3-yl}-4H-benzo[1,4]thiazin-3-one], the MIC was at most 0.031 µg/mL.

On to `COc1ccc2ncc(F)c(N3CC[C@H](NC[C@@H]4CN(c5ccc6c(c5)NC(=O)CO6)C(=O)O4)C3)c2n1` [Example 64, 6-((R)-5-{[(S)-1-(3-Fluoro-6-methoxy-[1,5]naphthyridin-4-yl)-pyrrolidin-3-ylamino]-methyl}-2-oxo-oxazolidin-3-yl)-4H-benzo[1,4]oxazin-3-one], for which the MIC was at most 0.031 µg/mL.

As to `COc1ccc2nccc(N3CCN(CC4CN(c5ccc(C(F)(F)F)cn5)C(=O)O4)CC3)c2n1` (racemic) [Example 44, (RS)-5-[4-(6-Methoxy-[1,5]naphthyridin-4-yl)-piperazin-1-ylmethyl]-3-(5-trifluoromethyl-pyridin-2-yl)-oxazolidin-2-one], the MIC stood at 0.5 µg/mL (≈ 1.02 µM).

Take `COc1ccc2nccc(N3CCCN(C[C@@H]4CN(c5ccc6c(c5)NC(=O)CS6)C(=O)O4)CC3)c2n1` [Example 106, 6-{(R)-5-[4-(6-Methoxy-[1,5]naphthyridin-4-yl)-[1,4]diazepan-1-ylmethyl]-2-oxo-oxazolidin-3-yl}-4H-benzo[1,4]thiazin-3-one]: the minimal inhibitory concentration (MIC) was at most 0.031 µg/mL.

As for `COc1ccc2nccc(N3CCC(C(=O)NC[C@@H]4CN(c5ccc(C)c(F)c5)C(=O)O4)C3)c2n1` (mixture of isomers) [Example 84, (RS)-1-(6-Methoxy-[1,5]naphthyridin-4-yl)-pyrrolidine-3-carboxylic acid [(R)-3-(3-fluoro-4-methyl-phenyl)-2-oxo-oxazolidin-5-ylmethyl]-amide], the MIC was at most 0.031 µg/mL.
